Measurements from US20240016861A1, “COMBINATION THERAPY FOR TREATING OR PREVENTING CANCER” (4D Pharma Research Limited, priority 2018, published 2024).

How the values were obtained:
RENCA tumour cells = test: Antitumor activity, RENCA model; type: in vivo, mouse; settings: D18 and D22, compared to untreated and vehicle groups, FIG. 3B
Procedure: Treatment schedule—The start of first dosing was considered as D0. On D0, non-engrafted mice were randomized according to their individual body weight into groups of 9 mice using Vivo manager® software (Biosystemes, Couternon, France). On D0, the mice received vehicle (culture medium) or bacterial strain (2×10^8 in 200 μL, PO). On D14, all mice were engrafted with RENCA tumour cells injected SC into the ventral surface of the lower flank as described below. Treatment with anti-CTLA-4 (10 mg/kg, IP) and anti-PDL1 (clone 10F.9G2, 10 mg/kg) was initiated when tumours reached a volume of 50-70 mm3.
Orthotopic induction of RENCA tumor cells in animals by SC injection—On D14, one million (1×10^6) RENCA tumor cells in 50 ΞL RPMI 1640 medium were transplanted via SC injection into the ventral surface of the lower flank of mice.
Euthanasia - Each mouse was euthanized when it reached a humane endpoint as described in section below, or after a maximum of 6 weeks post start of dosing.
Evaluation of tumour burden at euthanasia—At the time of termination, tumours were collected and their volume evaluated.
Clinical monitoring—The length and width of the tumour was measured twice a week with callipers and the volume of the tumour was estimated by this formula [52]: […]

immature dendritic cells = test: Cytokine production in immature dendritic cells; type: cell-based; settings: compared to the negative control, MRX518 10^7/ml, LPS 100 ng/ml, FIG. 4
Procedure: A monocyte population was isolated from peripheral blood mononuclear cells (PBMCs). The monocyte cells were subsequently differentiated into immature dendritic cells. The immature dendritic cells were plated out at 200,000 cells/well and incubated with MRX518 at a final concentration of 10^7/ml, with the optional addition of LPS at a final concentration of 100 ng/ml. The negative control involved incubating the cells with RPMI media alone and positive controls incubated the cells with LPS at a final concentration of 100ng/ml. The cytokine content of the cells was then analysed.

Molecule | tumour size (RENCA tumour cells) | level of IL-6 (immature dendritic cells) | level of TNF-α (immature dendritic cells)
CC(=O)O[C@H]1C(=O)[C@@]2(C)[C@H]([C@H](OC(=O)c3ccccc3)[C@]3(O)C[C@H](OC(=O)[C@H](O)[C@@H](NC(=O)c4ccccc4)c4ccccc4)C(C)=C1C3(C)C)[C@]1(OC(C)=O)CO[C@@H]1C[C@@H]2O [Paclitaxel] | (almost) complete reduction | – | –
lipopolysaccharide [LPS] | – | increase | increase
